Source: US20090270382A1, “Soluble epoxide hydrolase inhibitors” (Arete Therapeutics, Inc., priority 2008, published 2009)

Tests used:
[1] = tested on: soluble epoxide hydrolase (sEH); test: Fluorescent assay for mouse and human soluble epoxide hydrolase (CMNPC substrate); type: biochemical
Text: Fluorescent Assay for Mouse and Human Soluble Epoxide Hydrolase Recombinant mouse sEH (MsEH) and human sEH (HsEH) were produced in a baculovirus expression system as previously reported. Grant et al., J. Biol. Chem., 268:17628-17633 (1993); Beetham et al., Arch. Biochem. Biophys., 305:197-201 (1993). The expressed proteins were purified from cell lysate by affinity chromatography. Wixtrom et al., Anal. Biochem., 169:71-80 (1988). Protein concentration was quantified using the Pierce BCA assay using bovine serum albumin as the calibrating standard. The preparations were at least 97% pure as judged by SDS-PAGE and scanning densitometry. They contained no detectable esterase or glutathione transferase activity which can interfere with the assay. The assay was also evaluated with similar results in crude cell lysates or homogenate of tissues. The IC50s for each inhibitor were according to the following procedure: […] Jones P. D. et. al.; Analytical Biochemistry 2005; 343: pp. 66-75) Bis/Tris HCl 25 mM pH 7.0 containing 0.1 mg/mL of BSA (buffer […] at 0.25 mM in DMSO. Mother solution of enzyme in buffer A (Mouse sEH at 6 μg/mL and Human sEH at 5 μg/mL). Inhibitor dissolved in DMSO at the appropriate concentration. In a black 96 well plate, fill all the wells with 150 μL of buffer A. Add 2 μL of DMSO in well A2 and A3, and then add 2 μL of inhibitor solution in A1 and A4 through A12. Add 150 μL of buffer A in row A, then mix several time and transfer 150 μL to row B. Repeat this operation up to row H. The 150 μL removed from row H is discarded. Add 20 μL of buffer A in column 1 and 2, then add 20 μL of enzyme solution to column 3 to 12. Incubate the plate for 5 minutes in the plate reader at 30° C. During incubation prepare the working solution of substrate by mixing 3.68 mL of buffer A (4×0.920 mL) with 266 μL (2×133 μL) of substrate solution). At t=0, add 30 μL of working substrate solution with multi-channel pipette labeled “Briggs 303” and start the reading ([S]final: 5 μM). […] The velocities are used to analyze and calculate the IC50s.

Row | Compound | % Inhibition ([1]; compound concentration 2000 nM) | melting point | % Inhibition ([1]; compound concentration 200 nM)
1 | O=C(Nc1cccc(OC(F)(F)F)c1)NC1CCN(C(=O)c2cccnc2)CC1 [Compound 10, 1-(1-nicotinoylpiperidin-4-yl)-3-(3-(trifluoromethoxy)phenyl)urea] | 99% | – | –
2 | Cc1ccc(C(=O)N2CCC(NC(=O)Nc3ccc(OC(F)(F)F)cc3)CC2)cn1 [Compound 4, 1-(1-(6-methylnicotinoyl)piperidin-4-yl)-3-(4-(trifluoromethoxy)phenyl)urea] | – | 206 to 208 °C | 97%
3 | O=C(Nc1ccc(OC(F)(F)F)cc1)NC1CCN(S(=O)(=O)c2cccnc2)CC1 [Compound 6, 1-(1-(pyridin-3-ylsulfonyl)piperidin-4-yl)-3-(4-(trifluoromethoxy)phenyl)urea] | – | 217 to 219 °C | 96%
4 | O=C(Nc1ccc(OC(F)(F)F)cc1)NC1CCN(C(=O)c2ccncc2)CC1 [Compound 8, 1-(1-isonicotinoylpiperidin-4-yl)-3-(4-(trifluoromethoxy)phenyl)urea] | 99% | – | –
5 | O=C(Nc1ccc(OC(F)(F)F)cc1)NC1CCN(C(=O)c2cccnc2)CC1 [Compound 12, 1-(1-nicotinoylpiperidin-4-yl)-3-(4-(trifluoromethoxy)phenyl)urea] | 100% | – | –
6 | COc1ccc(C(=O)N2CCC(NC(=O)Nc3ccc(OC(F)(F)F)cc3)CC2)cn1 [Compound 9, 1-(1-(6-methoxynicotinoyl)piperidin-4-yl)-3-(4-(trifluoromethoxy)phenyl)urea] | 99% | 200 to 202 °C | –
7 | Cc1ncccc1C(=O)N1CCC(NC(=O)Nc2ccc(OC(F)(F)F)cc2)CC1 [Compound 3, 1-(1-(2-methylnicotinoyl)piperidin-4-yl)-3-(4-(trifluoromethoxy)phenyl)urea] | – | 107 to 109 °C | 95%
8 | O=C(Nc1ccc(OC(F)(F)F)cc1)NC1CCN(C(=O)c2cncc(C(=O)O)c2)CC1 [Compound 1, 5-(4-(3-(4-(trifluoromethoxy)phenyl)ureido)piperidine-1-carbonyl)nicotinic acid] | – | 211 to 213 °C | 94%
9 | O=C(Nc1ccc(OC(F)(F)F)cc1)NC1CCN(C(=O)c2cncc(F)c2)CC1 [Compound 7, 1-(1-(5-fluoronicotinoyl)piperidin-4-yl)-3-(4-(trifluoromethoxy)phenyl)urea] | 98% | 156 to 157 °C | –
10 | COc1ncccc1C(=O)N1CCC(NC(=O)Nc2ccc(OC(F)(F)F)cc2)CC1 [Compound 5, 1-(1-(2-methoxynicotinoyl)piperidin-4-yl)-3-(4-(trifluoromethoxy)phenyl)urea] | – | 92 to 94 °C | 99%
11 | O=C(Nc1ccc(OC(F)(F)F)cc1)NC1CCN(C(=O)c2ccc(C(F)(F)F)nc2)CC1 [Compound 2, 1-(4-(trifluoromethoxy)phenyl)-3-(1-(6-(trifluoromethyl)nicotinoyl)piperidin-4-yl)urea] | – | 206 to 208 °C | 97%
12 | O=C(Nc1ccc(OC(F)(F)F)cc1)NC1CCN(C(=O)Cc2ccccn2)CC1 [Compound 11, 1-(1-(2-(pyridin-2-yl)acetyl)piperidin-4-yl)-3-(4-(trifluoromethoxy)phenyl)urea] | 100% | – | –

Further lines, results first:

Row | % Inhibition ([1]; compound concentration 2000 nM) | melting point | % Inhibition ([1]; compound concentration 200 nM) | Compound
13 | 97% | 213 to 215 °C | – | O=C(Nc1ccc(OC(F)(F)F)cc1)NC1CCN(C(=O)c2ccc(Cl)cn2)CC1 [Compound 18, 1-(1-(5-chloropicolinoyl)piperidin-4-yl)-3-(4-(trifluoromethoxy)phenyl)urea]
14 | 99% | 89 to 91 °C | – | O=C(Nc1ccc(OC(F)(F)F)cc1)NC1CCN(C(=O)c2cnccc2C(F)(F)F)CC1 [Compound 13, 1-(4-(trifluoromethoxy)phenyl)-3-(1-(4-(trifluoromethyl)nicotinoyl)piperidin-4-yl)urea]
15 | 100% | 265 to 268 °C | – | O=C(Nc1ccc(OC(F)(F)F)cc1)NC1CCN(C(=O)c2ccc(N3CCOCC3)nc2)CC1 [Compound 15, 1-(1-(6-morpholinonicotinoyl)pipendin-4-yl)-3-(4-(trifluoromethoxy)phenyl)urea]
16 | 100% | 230 to 232 °C | – | O=C(Nc1ccc(OC(F)(F)F)cc1)NC1CCN(C(=O)c2ccc(-c3ccccc3)nc2)CC1 [Compound 14, 1-(1-(6-phenylnicotinoyl)piperidin-4-yl)-3-(4-(trifluoromethoxy)phenyl)urea]
17 | 100% | 212 to 214 °C | – | CN1CCOc2cc(C(=O)N3CCC(NC(=O)Nc4ccc(OC(F)(F)F)cc4)CC3)cnc21 [Compound 17, 1-(1-(4-methyl-3,4-dihydro-2H-pyrido[3,2-b][1,4]oxazine-7-carbonyl)piperidin-4-yl)-3-(4-(trifluoromethoxy)phenyl)urea]
18 | 100% | 182 to 185 °C | – | O=C(Nc1ccc(OC(F)(F)F)cc1)NC1CCN(C(=O)c2ccc(Oc3ccccc3)nc2)CC1 [Compound 16, 1-(1-(6-phenoxynicotinoyl)piperidin-4-yl)-3-(4-(trifluoromethoxy)phenyl)urea]
